# Measured values taken from patent US9895352B2, “Indolinone compounds and uses thereof” (Oncternal Therapeutics, Inc., priority 2014, dated 2018).
# “And” between values parts separate entries of the source, which are not always exact repeats. Equal values may be shown once. Read-outs that look alike come from different tables or passages of the source.
# How the values were obtained:
# [1] = system: A4573; test: CCK-8 tetrazolium tumor cell growth inhibition, A4573; type: cell-based; settings: Homo sapiens; A4573, ES, EWS-FLI1 Type 3
# Protocol: (§1) A modified tetrazolium salt assay using the CCK-8 kit (Sigma-Aldrich; St Louis, Mo.) was used to measure the inhibition of human tumor cell growth. Tumor cells (5000-7500 per well) were added to 96 well plates and allowed to attach for 4-5 hours. Compounds were serially diluted and added in triplicate at a concentration of 0.02 to 5 μM. DMSO was included as a vehicle control. Cells were incubated in the presence of compound for 3 days. After incubation CCK-8 reagent was added to each well and incubated for 2-4 hours. Viable cells were quantitated spectrophotometrically at a wavelength of 450 nm. Percent viability of each sample was calculated from the A450 values as follows: % viability=(A450 nm sample/A450 nm DMSO-treated cells×100). […] IC50 activities of particular compounds were determined using SKES cells (Ewing Sarcoma cell line).
# [2] = system: MCF7; test: CCK-8 tetrazolium tumor cell growth inhibition, MCF7; type: cell-based; settings: Homo sapiens; MCF7, Breast, no ETS rearrangement
# Protocol: as §1
# [3] = system: TC71; test: CCK-8 tetrazolium tumor cell growth inhibition, TC71; type: cell-based; settings: Homo sapiens, TC-71; TC71, ES, EWS-FLI1 Type 1
# Protocol: as §1
# [4] = system: PC3; test: CCK-8 tetrazolium tumor cell growth inhibition, PC3; type: cell-based; settings: Homo sapiens, PC-3; PC3, Prostate, no ETS rearrangement
# Protocol: as §1
# [5] = mouse liver microsome, no cofactor, 60 min
# [6] = Pharmacokinetics after IV and oral administration; type: in vivo; settings: BALB/c mice or Sprague Dawley rats; for Cmax / Tmax / bioavailability / half-life: plasma; for Tmax: read-out: Tmax
# Protocol: (§2) Certain pharmacokinetics parameters were determined for certain compounds in vivo for intravenous and oral administration. Briefly, compounds were formulated and administered using IV bolus, continuous IV infusion or oral administration. Blood was collected at multiple time points over 24 hours and processed into plasma. Plasma was analyses for parent using LC/MS/MS. Certain parameters for certain compounds were obtained in duplicate.
# [7] = system: SKES cells (Ewing Sarcoma cell line); test: CCK-8 tetrazolium tumor cell growth inhibition, SKES; type: cell-based; settings: Homo sapiens
# Protocol: as §1
# [8] = in vitro; settings: dog, microsomes
# [9] = human liver microsome, no cofactor, 60 min
# [10] = system: MDA-MB-231; test: CCK-8 tetrazolium tumor cell growth inhibition, MDA-MB-231; type: cell-based; settings: Homo sapiens; MDA-MB-231, Breast, increased ETV1
# Protocol: as §1
# [11] = system: BxPC3; test: CCK-8 tetrazolium tumor cell growth inhibition, BxPC3; type: cell-based; settings: Homo sapiens, BXPC-3; BxPC3, Pancreas, increased FLI1
# Protocol: as §1
# [12] = dog liver microsome, no cofactor, 60 min
# [13] = system: A4573 tumor cells; test: A4573 xenograft study in mice; type: in vivo; settings: A4573 tumors, relative to vehicle control
# [14] = system: A4573 tumor cells; test: similar rat xenograft study; type: in vivo; settings: compared to the vehicle control
# [15] = in vitro; settings: rat, microsomes
# [16] = system: PANC1; test: CCK-8 tetrazolium tumor cell growth inhibition, PANC1; type: cell-based; settings: Homo sapiens, PANC-1; PANC1, Pancreas, no ETS rearrangement
# Protocol: as §1
# [17] = system: LNCap; test: CCK-8 tetrazolium tumor cell growth inhibition, LNCap; type: cell-based; settings: Homo sapiens, Prostate, rearranged ETV1
# Protocol: as §1
# [18] = rat liver microsome, no cofactor, 60 min
# [19] = Pharmacokinetics, continuous infusion study in rat; type: in vivo; settings: for Vd / clearance / half-life: plasma, iv
# Protocol: as §2
# [20] = Half-life in mouse hepatocytes; type: in vitro ADME; settings: read-out: Half life of cmpds
# Protocol: (§3) In another study, metabolism of compounds in hepatocytes from various species was examined. Hepatocytes were contacted with a compound, and the half-life of the compound was determined.
# [21] = Half-life in human hepatocytes; type: in vitro ADME; settings: read-out: Half life of cmpds
# Protocol: as §3
# [22] = in vitro; settings: mouse, microsomes
# [23] = Half-life in dog hepatocytes; type: in vitro ADME; settings: read-out: Half life of cmpds
# Protocol: as §3
# [24] = Half-life in rat hepatocytes; type: in vitro ADME; settings: read-out: Half life of cmpds
# Protocol: as §3
# [25] = Pharmacokinetics, continuous infusion study in dog; type: in vivo; settings: for Vd / clearance / half-life: plasma, iv
# Protocol: as §2
# [26] = 20 mg/kg po, labrasol/tetraglycol 9:1
# [27] = 20 mg/kg po, labrasol:tetraglycol:water 72:8:20
# [28] = iv, 5 mg/kg, 5 mg/kg IV, captisol
# [29] = po, 20 mg/kg, 20 mg/kg po, labrasol/tetraglycol 9:1
# [30] = po, 20 mg/kg, 20 mg/kg po, labrasol:tetraglycol:water 72:8:20
# [31] = iv, 10 mg/kg, 10 mg/kg IV, captisol
# [32] = po, 25 mg/kg, 25 mg/kg po, labrasol:tetraglycol:water 72:8:20
# [33] = po, 100 mg/kg, 100 mg/kg po, PEG-400/tween
# [34] = po, 100 mg/kg, 100 mg/kg po, labrasol/tetraglycol
smiles,measurement,setting,value
"COc1ccc(C(=O)CC2(O)C(=O)Nc3c(Cl)ccc(Cl)c32)cc1 (single isomer, unassigned) [Cmpd 2, 4,7-Dichloro-3-hydroxy-3-[2-(4-methoxyphenyl-2-oxoethyl)]-1,3-dihydroindol-2-one]",IC50,[1],< 5 µM
same,IC50,[2],> 5 µM
same,IC50,[3],< 5 µM
same,IC50,[4],> 5 µM
same,Remaining (NCF = 60 min),[5],90.2%
same,AUC,"[6]; 5 mg/kg IV, captisol",1991 h * (ng/mL)
same,% F,[6]; [26],49%
same,AUC,[6]; [26],3896 h * (ng/mL) and 3890 h * (ng/mL)
same,% F,[6]; [27],57%
same,AUC,[6]; [27],4574 h * (ng/mL)
same,Cmax,[6]; [28],9380 ng/mL
same,Tmax,[6]; [28],0.033 h
same,Cmax,[6]; [29],2240 ng/mL
same,bioavailability,[6]; [29],40%
same,half-life,[6]; [29],1.6 h
same,Tmax,[6]; [29],1 h
same,Cmax,[6]; [30],2840 ng/mL
same,bioavailability,[6]; [30],47%
same,half-life,[6]; [30],1.5 h
same,Tmax,[6]; [30],1 h
same,IC50,"[7]; 72 h, SKES cells, 3 days with compound, CCK-8 (TABLE 3)",< 5 µM
same,IC50,"[7]; SKES, ES, EWS-FLI1 Type 2",< 5 µM
same,half-life,[8],0.505 h
same,Remaining (NCF = 60 min),[9],112.1%
same,IC50,[10],< 5 µM
same,IC50,[11],< 5 µM
same,Remaining (NCF = 60 min),[12],100.6%
same,tumor growth inhibition (TGI),[13]; 200 mg/kg bid oral,did not show TGI
same,tumor growth inhibition (TGI),[14],87%
same,half-life,[15],3.8 min
same,IC50,[16],> 5 µM
same,IC50,[17],< 5 µM
same,Remaining (NCF = 60 min),[18],92.7%
"O=C(CC1(O)C(=O)Nc2c(Cl)ccc(Cl)c21)c1ccc(C2CC2)cc1 (single isomer, unassigned) [Cmpd 14, 4,7-Dichloro-3-(2-(4-cyclopropylphenyl)-2-oxoethyl)-3-hydroxyindolin-2-one]",IC50,[1],< 5 µM
same,IC50,[2],> 5 µM
same,IC50,[3],< 5 µM
same,Css(3-24 h),[19]; 24 mg/kg/day,344 ng/mL and 0.91 μM
same,MRT24-inf,[19]; 24 mg/kg/day,1.11 h
same,Css(3-24 h),[19]; 96 mg/kg/day,1376 ng/mL and 3.7 μM
same,MRT24-inf,[19]; 96 mg/kg/day,1.73 h
same,Vd,[19]; 24 mg/kg/day,3.46 L/kg
same,clearance,[19]; 24 mg/kg/day,48.7 mL/min/kg
same,half-life,[19]; 24 mg/kg/day,0.824 h
same,Vd,[19]; 96 mg/kg/day,4.23 L/kg
same,clearance,[19]; 96 mg/kg/day,49.6 mL/min/kg
same,half-life,[19]; 96 mg/kg/day,1 h
same,IC50,[4],> 5 µM
same,Remaining (NCF = 60 min),[5],102.0%
same,AUC,"[6]; 5 mg/kg IV, captisol",4131 h * (ng/mL)
same,AUC,"[6]; 10 mg/kg IV, captisol",6059 h * (ng/mL)
same,AUC,"[6]; 25 mg/kg po, labrasol:tetraglycol:water 72:8:20",13152 h * (ng/mL)
same,AUC,"[6]; 100 mg/kg po, PEG-400/tween",92219 h * (ng/mL)
same,AUC,"[6]; 100 mg/kg po, labrasol/tetraglycol",146167 h * (ng/mL)
same,Cmax,[6]; [28],10900 ng/mL
same,half-life,[6]; [28],0.8 h
same,Tmax,[6]; [28],0.03 h
same,Cmax,[6]; [31],39800 ng/mL
same,half-life,[6]; [31],1.43 h
same,Tmax,[6]; [31],0.03 h
same,Cmax,[6]; [32],2770 ng/mL
same,bioavailability,[6]; [32],64%
same,half-life,[6]; [32],3.1 h
same,Tmax,[6]; [32],1 h
same,Cmax,[6]; [33],26000 ng/mL
same,bioavailability,[6]; [33],100%
same,half-life,[6]; [33],3.83 h
same,Tmax,[6]; [33],0 h
same,Cmax,[6]; [34],33000 ng/mL
same,bioavailability,[6]; [34],100%
same,half-life,[6]; [34],7.71 h
same,Tmax,[6]; [34],2 h
same,half-life,[20],1.05 h
same,half-life,[21],1.26 h
same,Remaining (NCF = 60 min),[9],104.5%
same,IC50,[10],< 5 µM
same,IC50,[11],< 5 µM
same,half-life,[22],0.385 h
same,Remaining (NCF = 60 min),[12],97.1%
same,tumor growth inhibition (TGI),[13]; 100 mg/kg bid oral,57%
same,tumor growth inhibition (TGI),[14],53%
same,half-life,[15],2.8 min
same,half-life,[23],0.338 h
same,IC50,[16],> 5 µM
same,IC50,[17],< 5 µM
same,Remaining (NCF = 60 min),[18],97.6%
same,half-life,[24],0.457 h
same,Css(3-24 h),[25]; 10 mg/kg/day,210 ng/mL and 0.56 μM
same,MRT24-inf,[25]; 10 mg/kg/day,2.5 h
same,Css(3-24 h),[25]; 25 mg/kg/day,466 ng/mL and 1.24 μM
same,MRT24-inf,[25]; 25 mg/kg/day,2.2 h
same,Vd,[25]; 10 mg/kg/day,5.64 L/kg
same,clearance,[25]; 10 mg/kg/day,33.6 mL/min/kg
same,half-life,[25]; 10 mg/kg/day,1.9 h
same,Vd,[25]; 25 mg/kg/day,5.66 L/kg
same,clearance,[25]; 25 mg/kg/day,37.3 mL/min/kg
same,half-life,[25]; 25 mg/kg/day,1.7 h
